What was measured:
Assay in all cases: relative viability (nuclei count vs DMSO), 5 days (fraction); higher = more cells survive
Ponatinib + Lapatinib = compound: Cc1ccc(C(=O)Nc2ccc(CN3CCN(C)CC3)c(C(F)(F)F)c2)cc1C#Cc1cnc2cccnn12 [Ponatinib] + CS(=O)(=O)CCNCc1ccc(-c2ccc3ncnc(Nc4ccc(OCc5cccc(F)c5)c(Cl)c4)c3c2)o1 [Lapatinib] (partner 2 µM)
Summary of the method: (§1)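 One day after seeding in 1536-well plates, lung cancer cell lines were dosed by pin tool. Dosing was either single-drug or a fixed anchor-drug dose plus five library-drug doses (not always all listed) in √10 steps. After 5 days, nuclei were stained in one fix-and-stain step and counted on 4× images, and relative viability is the nuclei count of treated wells over that of vehicle wells, given as the median of duplicate plates.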

Ponatinib + Navitoclax = compound: Cc1ccc(C(=O)Nc2ccc(CN3CCN(C)CC3)c(C(F)(F)F)c2)cc1C#Cc1cnc2cccnn12 [Ponatinib] + CC1(C)CCC(c2ccc(Cl)cc2)=C(CN2CCN(c3ccc(C(=O)NS(=O)(=O)c4ccc(N[C@H](CCN5CCOCC5)CSc5ccccc5)c(S(=O)(=O)C(F)(F)F)c4)cc3)CC2)C1 [Navitoclax] (partner 0.5 µM)
Summary of the method: as §1

Pazopanib + Luminespib = compound: Cc1ccc(Nc2nccc(N(C)c3ccc4c(C)n(C)nc4c3)n2)cc1S(N)(=O)=O [Pazopanib] + CCNC(=O)c1noc(-c2cc(C(C)C)c(O)cc2O)c1-c1ccc(CN2CCOCC2)cc1 [Luminespib] (partner 0.01 µM)
Summary of the method: as §1

Pazopanib + Dasatinib = compound: Cc1ccc(Nc2nccc(N(C)c3ccc4c(C)n(C)nc4c3)n2)cc1S(N)(=O)=O [Pazopanib] + Cc1nc(Nc2ncc(C(=O)Nc3c(C)cccc3Cl)s2)cc(N2CCN(CCO)CC2)n1 [Dasatinib] (partner 0.075 µM)
Summary of the method: as §1

| Cell Line | relative viability (Ponatinib + Lapatinib; first compound 0.002 µM) | relative viability (Ponatinib + Lapatinib; first compound 0.006325 µM) | relative viability (Ponatinib + Lapatinib; first compound 0.06325 µM) | relative viability (Ponatinib + Lapatinib; first compound 0.2 µM) | relative viability (Ponatinib + Navitoclax; first compound 0.002 µM) | relative viability (Ponatinib + Navitoclax; first compound 0.006325 µM) | relative viability (Ponatinib + Navitoclax; first compound 0.06325 µM) | relative viability (Ponatinib + Navitoclax; first compound 0.2 µM) | relative viability (Pazopanib + Luminespib; first compound 0.01 µM) | relative viability (Pazopanib + Luminespib; first compound 0.03162 µM) | relative viability (Pazopanib + Luminespib; first compound 0.1 µM) | relative viability (Pazopanib + Luminespib; first compound 0.3162 µM) | relative viability (Pazopanib + Luminespib; first compound 1 µM) | relative viability (Pazopanib + Dasatinib; first compound 0.01 µM) | relative viability (Pazopanib + Dasatinib; first compound 0.03162 µM) | relative viability (Pazopanib + Dasatinib; first compound 0.1 µM) | relative viability (Pazopanib + Dasatinib; first compound 0.3162 µM) | relative viability (Pazopanib + Dasatinib; first compound 1 µM) |
| --- | --- | --- | --- | --- | --- | --- | --- | --- | --- | --- | --- | --- | --- | --- | --- | --- | --- | --- |
| HARA | 0.88 | 0.887 | 0.406 | 0.378 | 1.13 | 1.14 | 1.12 | 1.16 | 0.548 | 0.704 | 1.09 | 0.76 | 0.839 | 0.23 | 0.341 | 0.241 | 0.248 | 0.337 |
| PC-14 | 0.313 | 0.363 | 0.384 | 0.386 | 0.927 | 1 | 1.14 | 0.919 | 0.155 | 0.177 | 0.173 | 0.177 | 0.142 | 0.27 | 0.241 | 0.288 | 0.267 | 0.266 |
| NCI-H1755 | 0.977 | 1.08 | 1.06 | 0.943 | 0.962 | 0.947 | 1.02 | 0.803 | 0.422 | 0.42 | 0.261 | 0.448 | 0.527 | 0.333 | 0.398 | 0.433 | 0.384 | 0.411 |
| HCC-78 | 0.74 | 0.709 | 0.597 | 0.63 | 0.578 | 0.725 | 0.981 | 0.629 | – | – | – | – | – | 0.328 | 0.383 | 0.362 | 0.429 | 0.339 |
| IA-LM | 0.897 | 0.67 | 0.77 | 0.721 | 0.658 | 0.62 | 0.749 | 0.684 | – | – | – | – | – | – | – | – | – | – |
| NCI-H441 | – | – | – | – | 0.638 | 0.42 | 0.554 | 0.596 | 0.343 | 0.485 | 0.311 | 0.274 | 0.317 | 0.451 | 0.612 | 0.643 | 0.565 | 0.658 |
| NCI-H322M | 0.636 | 0.61 | 0.659 | 0.518 | 1.2 | 1.15 | 1.3 | 0.907 | 0.956 | 0.954 | 0.871 | 0.945 | 0.844 | 0.265 | 0.258 | 0.257 | 0.275 | 0.277 |
| NCI-H661 | 0.437 | 0.523 | 0.592 | 0.361 | – | – | – | – | 0.926 | 0.927 | 0.958 | 1.02 | 0.953 | 0.908 | 0.894 | 0.815 | 0.931 | 1.15 |
| NCI-H650 | 0.886 | 0.835 | 0.819 | 0.854 | – | – | – | – | 0.682 | 0.773 | 0.669 | 0.813 | 0.735 | 0.398 | 0.511 | 0.449 | 0.427 | 0.482 |
| ChaGo-K-1 | – | – | – | – | 0.914 | 1.18 | 1.05 | 0.954 | 0.632 | 0.595 | 0.586 | 0.492 | 0.574 | 0.554 | 0.622 | 0.591 | 0.515 | 0.7 |
| NCI-H2342 | – | – | – | – | – | – | – | – | 0.671 | 0.736 | 0.612 | 0.759 | 0.588 | 0.303 | 0.339 | 0.305 | 0.297 | 0.278 |
| NCI-H1299 | 0.956 | 0.968 | 0.979 | 0.934 | 1.05 | 1.03 | 1.1 | 1.01 | – | – | – | – | – | – | – | – | – | – |
| SW 900 | – | – | – | – | – | – | – | – | 0.153 | 0.177 | 0.177 | 0.177 | 0.164 | 0.539 | 0.731 | 0.596 | 0.66 | 0.543 |
| NCI-H522 | – | – | – | – | – | – | – | – | – | 0.912 | 1.13 | 1.06 | 1.07 | 0.614 | 0.865 | 0.968 | 0.897 | 0.918 |
| HCC-366 | 1.01 | 1.01 | 1.08 | 1.01 | 1.03 | 1.02 | 1.14 | 0.966 | – | – | – | – | – | 0.421 | 0.655 | 0.762 | 0.676 | 0.733 |
| A549 | 0.946 | 1.03 | 1.05 | 0.88 | 1.17 | 1.11 | 1.37 | 1.16 | – | – | – | – | – | – | – | – | – | – |
| NCI-H358 | 0.468 | 0.431 | 0.393 | 0.378 | – | – | – | – | 0.398 | 0.374 | 0.284 | 0.337 | 0.441 | 0.157 | 0.152 | 0.158 | – | 0.258 |
| NCI-H1563 | 0.86 | 0.856 | 0.885 | 0.727 | – | – | – | – | 0.476 | 0.507 | 0.497 | 0.519 | 0.526 | 0.473 | 0.451 | 0.471 | 0.485 | 0.5 |
| ABC-1 | 1.1 | 1.17 | 1.2 | 0.864 | – | – | – | – | 0.627 | 0.672 | – | 0.41 | 0.961 | 0.481 | 0.635 | – | 0.551 | 0.637 |
| LCLC-103H | – | – | – | – | – | – | – | – | 0.861 | 1.02 | 1.03 | 0.937 | 1.05 | 0.314 | 0.472 | 0.495 | 0.451 | 0.459 |
